In US8956662B2, “Phenylephrine pharmaceutical formulations and compositions for colonic absorption” (MSD Consumer Care, Inc., priority 2006, dated 2015):
Structures can show the parent of a compound that is named as a salt. Where two headings read alike, the source gives them in different places.

Columns and labels:
[1] = Bioavailability of phenylephrine: plasma levels after delivery to the colon via Enterion capsules or oral Sudafed PE; assay type: in vivo, human; conditions: for t1/2, unconjugated Phenylephrine / Tmax, unconjugated Phenylephrine: hydrochloride; for Tlag, unconjugated Phenylephrine / Tmax, unconjugated Phenylephrine: median (range); for AUC(0-t) / Cmax / bioavailability / concentration at 0.083 h / concentration at […] / concentration at 0.5 h / concentration at 1 h / concentration at 2 h / concentration at 3 h / concentration at 4 h / concentration at 6 h / concentration at 8 h / concentration at 12 h / concentration at 14 h / concentration at 16 h / concentration at 24 h: both sexes, human, plasma, oral; for Cmax: read-out: Cmax, unconjugated Phenylephrine; for bioavailability: read-out: Frel last (bioavailability relative to immediate release oral formulation), unconjugated Phenylephrine; for concentration at 0.083 h: 0.083 h post-dose; for concentration at 0.083 h / concentration at […] / concentration at 0.5 h / concentration at 1 h / concentration at 2 h / concentration at 3 h / concentration at 4 h / concentration at 6 h / concentration at 8 h / concentration at 12 h / concentration at 14 h / concentration at 16 h / concentration at 24 h: read-out: Mean plasma concentration (Unconjugated); for concentration at 0.5 h: 0.5 h post-dose; for concentration at 1 h: 1 h post-dose; for concentration at 2 h: 2 h post-dose; for concentration at 3 h: 3 h post-dose; for concentration at 4 h: 4 h post-dose; for concentration at 6 h: 6 h post-dose; for concentration at 8 h: 8 h post-dose; for concentration at 12 h: 12 h post-dose; for concentration at 14 h: 14 h post-dose; for concentration at 16 h: 16 h post-dose; for concentration at 24 h: 24 h post-dose
Method: The following study was conducted to examine the phenylephrine absorption behavior in GI tract. […] Enterion™ capsules (Pharmaceutical Profiles Ltd, UK) allow for deployment of drug delivery at a desired location within the GI tract. To determine the capsules had reached a desired location, preparations of regimens A and C were administered orally with 210 mL water followed by a radiolabeled drink containing 4 MBq 99m-Tc-diethylenetriaminepetaacetic acid (DTPA) in 30 mL water so that the location of the ingested materials could be visualized by scintigraphic imaging. […] The blood samples were collected into a tube containing lithium heparin, centrifuged within 30 minutes at 1500 g for 15 minutes at 4 degrees Celsius. The plasma was analyzed for phenylephrine in its conjugated and unconjugated forms. The amount of conjugated phenylephrine was calculated by subtracting the amount of unconjugated phenylephrine assayed from the amount of total phenylephrine assayed.
The relative bioavailability, shown as Frel last in the table, indicates the bioavailability of phenylephrine administered to the colon relative to that administered as an immediate release oral formulation.

[2] = oral dosage forms; cited from earlier work
[3] = conventional tablet formulation; cited from earlier work
[4] = 10 mg PE-colon (Regimen A) n = 8
[5] = 30 mg PE-colon (Regimen C) n = 6
[6] = 10 mg PE-colon (Regimen A) n = 8, mean ± SD
[7] = 10 mg to colon via Enterion capsule (Regimen A)
[8] = 30 mg PE-colon (Regimen C) n = 6, mean ± SD
[9] = 30 mg to colon via Enterion capsule (Regimen C)

CNC[C@H](O)c1cccc(O)c1 [Phenylephrine hydrochloride, phenylephrine hydrochloride]
t1/2, unconjugated Phenylephrine ([1]; 10 mg PE-colon (Regimen A) n = 2, mean): 8.19 (n = 2) hours
Tlag, unconjugated Phenylephrine [1, 4]: 0.0800 (0–0.750)a hours
Tmax, unconjugated Phenylephrine [1, 4]: 1.50 (0.250–3.00)a hours
active unconjugated form as share of total phenylephrine concentration over time in plasma (AUC0-∞ unconjugated / AUC0-∞ total) ([1]; 10 mg phenylephrine in immediate release form): ≤ 0.5%
active unconjugated form as share of total phenylephrine concentration over time in plasma (AUC0-∞ unconjugated / AUC0-∞ total) ([1]; 10 mg phenylephrine released in the colon): approximately 2.2%
t1/2, unconjugated Phenylephrine ([1]; 30 mg PE-colon (Regimen C) n = 3, mean ± SD): 10.8 ± 7.99 (n = 3) hours
Tlag, unconjugated Phenylephrine [1, 5]: 0 (0–0.750)a hours
Tmax, unconjugated Phenylephrine [1, 5]: 2.25 (0.750–6.03)a hours
active unconjugated form as share of total phenylephrine concentration over time in plasma (AUC0-∞ unconjugated / AUC0-∞ total) ([1]; 30 mg phenylephrine released in the colon): Approximately 5%
increase of bioavailability versus oral immediate release form ([1]; absorption from the lower intestinal tract): by a factor of three
AUC(0-t) ([1]; 10 mg, 10 mg PE-colon (Regimen A) n = 2, mean, read-out: AUC0–24, unconjugated Phenylephrine (Table 13)): 2.87 ng·h/mL
AUC(0-t) ([1]; 10 mg, 10 mg phenylephrine hydrochloride delivered to the colon, read-out: mean AUC0-24 value of unconjugated phenylephrine): 1.58 ± 0.915 ng·h/mL
AUC(0-t) ([1]; 30 mg, 30 mg PE-colon (Regimen C) n = 3, mean ± SD, read-out: AUC0–24, unconjugated Phenylephrine (Table 13)): 8.94 ± 5.16 ng·h/mL
AUC(0-t) ([1]; 30 mg, 30 mg phenylephrine hydrochloride delivered to the colon, read-out: mean AUC0-24 value of unconjugated phenylephrine): 5.17 ± 1.56 ng·h/mL
Cmax [1, 6]: 0.4 ± 0.454 ng/mL
bioavailability [1, 6]: 332 ± 232%
concentration at 0.083 h [1, 7]: 0.0586 ng/mL
concentration at […] ([1]; 10 mg to colon via Enterion capsule (Regimen A), 0.25 h post-dose): 0.304 ng/mL
concentration at 0.5 h [1, 7]: 0.145 ng/mL
concentration at […] ([1]; 10 mg to colon via Enterion capsule (Regimen A), 0.75 h post-dose): 0.125 ng/mL
concentration at 1 h [1, 7]: 0.135 ng/mL
concentration at […] ([1]; 10 mg to colon via Enterion capsule (Regimen A), 1.5 h post-dose): 0.16 ng/mL
concentration at 2 h [1, 7]: 0.187 ng/mL
concentration at […] ([1]; 10 mg to colon via Enterion capsule (Regimen A), 2.5 h post-dose): 0.182 ng/mL
concentration at 3 h [1, 7]: 0.165 ng/mL
concentration at 4 h [1, 7]: 0.15 ng/mL
concentration at 6 h [1, 7]: 0.111 ng/mL
concentration at 8 h [1, 7]: 0.068 ng/mL
concentration at 12 h [1, 7]: 0.058 ng/mL
concentration at 14 h [1, 7]: 0.059 ng/mL
concentration at 16 h [1, 7]: 0.064 ng/mL
concentration at 24 h [1, 7]: 0.059 ng/mL
Cmax [1, 8]: 0.468 ± 0.174 ng/mL
bioavailability [1, 8]: 333 ± 140%
concentration at 0.083 h [1, 9]: 0.0458 ng/mL
concentration at […] ([1]; 30 mg to colon via Enterion capsule (Regimen C), 0.25 h post-dose): 0.0784 ng/mL
concentration at 0.5 h [1, 9]: 0.229 ng/mL
concentration at […] ([1]; 30 mg to colon via Enterion capsule (Regimen C), 0.75 h post-dose): 0.242 ng/mL
concentration at 1 h [1, 9]: 0.253 ng/mL
concentration at […] ([1]; 30 mg to colon via Enterion capsule (Regimen C), 1.5 h post-dose): 0.348 ng/mL
concentration at 2 h [1, 9]: 0.354 ng/mL
concentration at […] ([1]; 30 mg to colon via Enterion capsule (Regimen C), 2.5 h post-dose): 0.352 ng/mL
concentration at 3 h [1, 9]: 0.324 ng/mL
concentration at 4 h [1, 9]: 0.309 ng/mL
concentration at 6 h [1, 9]: 0.311 ng/mL
concentration at 8 h [1, 9]: 0.269 ng/mL
concentration at 12 h [1, 9]: 0.195 ng/mL
concentration at 14 h [1, 9]: 0.204 ng/mL
concentration at 16 h [1, 9]: 0.196 ng/mL
concentration at 24 h [1, 9]: 0.157 ng/mL
maximal plasma concentration of unconjugated phenylephrine as percentage of maximal plasma concentration of total phenylephrine ([1]; immediate release formulation by oral administration): less than 0.7%
half-life of active phenylephrine in plasma [2]: approximately 2 hours

CCOC(=O)N1CCC(=C2c3ccc(Cl)cc3CCc3cccnc32)CC1 [loratadine]
time the antihistaminic effect lasts [3]: > 24 h
